{
  "source": "patent US20110152372A1",
  "about": "“ANHYDROUS PETROLEUM JELLY/ELASTOMER-FREE DEPIGMENTING COMPOSITIONS COMPRISING A SOLUBILIZED PHENOLIC COMPOUND AND A RETINOID” (Galderma Research & Development, priority 2008, published 2011)",
  "origin": "cited, not measured here",
  "note": "Like-named read-outs stand apart in the source and are kept apart here.",
  "data": [
    {"smiles": "Oc1ccc(O)cc1", "note": "[hydroquinone]", "values": [
      {"measurement": "Incidence of irritation", "setting": "10% concentrations", "result": "relatively high"},
      {"measurement": "Incidence of irritation", "setting": "concentration of 2%", "result": "virtually nonexistent"},
      {"measurement": "Incidence of irritation", "setting": "preparations with a 5% dose", "result": "reduces greatly"}
    ]}
  ]
}
